Test results as given in the SangsterLogP compilation.

Test: not given
Conditions: not given

Row | logP | SMILES
1 | 4.9 | c1ccc(C(Sc2nc3ccccc3[nH]2)c2ccccc2)cc1
2 | -0.87 | CC(=O)NNC(=O)c1ccncc1
3 | -0.57 | NNC(=O)c1ccnc(NN)c1
4 | 0.27 | O=C(NN=C1CCCCC1)c1ccncc1
5 | 3.92 | c1ccc(CSc2nc3ccccc3[nH]2)cc1

Test: method code SF-AS, from DOI: 10.1021/je200827u
Conditions: pH 5.8

Row | SMILES | logD
6 | CC1CCC(=NNC(=O)c2ccncc2)CC1 (stereo unspecified) | 0.74
7 | O=C(NN=C1CCCC1)c1ccncc1 | 0.22

Continued, values first:

Row | logD | SMILES
8 | 3.43 | CCSc1nc2ccccc2n1CC
9 | 2.67 | CCSc1nc2ccccc2[nH]1
10 | 3.14 | O=[N+]([O-])c1cc(CSc2nc3ccccc3[nH]2)cc([N+](=O)[O-])c1
11 | 3.25 | CC(C)Sc1nc2ccccc2[nH]1
